Reference: article PMC6271078 (Molecules, 2014)
Counter-ions that a name gives are not always drawn.

Experiments:
Aqueous solubility = assay type: physicochemical; details: for Times Increased of Aqueous Solubility (Comp. vs. Rapa): ratio of compound solubility to Rapa solubility; for solubility / Aqueous Solubility: water

Row | melting point [°C] | Times Increased of Aqueous Solubility (Comp. vs. Rapa) (Aqueous solubility) | solubility (Aqueous solubility) [µg/mL] | Aqueous Solubility (Aqueous solubility) [µg/mL] | SMILES
1 | 130 to 133 | – | – | – | CO[C@H]1C[C@@H]2CC[C@@H](C)[C@@](O)(O2)C(=O)C(=O)N2CCCC[C@H]2C(=O)O[C@H]([C@H](C)C[C@@H]2CC[C@@H](OC(=O)C[n+]3cscc3C)[C@H](OC)C2)CC(=O)[C@H](C)/C=C(\C)[C@@H](O)[C@@H](OC)C(=O)[C@H](C)C[C@H](C)/C=C/C=C/C=C/1C (as salt: ammonium) [Compound 2, Rapa-42-ester of 2-(4-methylthiazolium-3-yl)acetic Acid]
2 | 135 to 137 | – | – | – | CO[C@H]1C[C@@H]2CC[C@@H](C)[C@@](O)(O2)C(=O)C(=O)N2CCCC[C@H]2C(=O)O[C@H]([C@H](C)C[C@@H]2CC[C@@H](OC(=O)C[n+]3ccccc3)[C@H](OC)C2)CC(=O)[C@H](C)/C=C(\C)[C@@H](O)[C@@H](OC)C(=O)[C@H](C)C[C@H](C)/C=C/C=C/C=C/1C (as salt: ammonium) [Compound 3, Rapa-42-ester of 2-(pyridinium-1-yl)acetic Acid]
3 | 138 to 140 | – | – | – | CO[C@H]1C[C@@H]2CC[C@@H](C)[C@@](O)(O2)C(=O)C(=O)N2CCCC[C@H]2C(=O)O[C@H]([C@H](C)C[C@@H]2CC[C@@H](OC(=O)C[n+]3cccc(C)c3)[C@H](OC)C2)CC(=O)[C@H](C)/C=C(\C)[C@@H](O)[C@@H](OC)C(=O)[C@H](C)C[C@H](C)/C=C/C=C/C=C/1C (as salt: ammonium) [Compound 4, Rapa-42-ester of 2-(3-methylpyridinium-1-yl)acetic Acid]
4 | 146 to 148 | – | – | – | CO[C@H]1C[C@@H]2CC[C@@H](C)[C@@](O)(O2)C(=O)C(=O)N2CCCC[C@H]2C(=O)O[C@H]([C@H](C)C[C@@H]2CC[C@@H](OC(=O)C[n+]3cccc(O)c3)[C@H](OC)C2)CC(=O)[C@H](C)/C=C(\C)[C@@H](O)[C@@H](OC)C(=O)[C@H](C)C[C@H](C)/C=C/C=C/C=C/1C (as salt: ammonium) [Compound 5, Rapa-42-ester of 2-(3-hydroxypyridinium-1-yl)acetic Acid]
5 | 157 to 160 | – | – | – | CO[C@H]1C[C@@H]2CC[C@@H](C)[C@@](O)(O2)C(=O)C(=O)N2CCCC[C@H]2C(=O)O[C@H]([C@H](C)C[C@@H]2CC[C@@H](OC(=O)C[n+]3ccc(C)cc3)[C@H](OC)C2)CC(=O)[C@H](C)/C=C(\C)[C@@H](O)[C@@H](OC)C(=O)[C@H](C)C[C@H](C)/C=C/C=C/C=C/1C (as salt: ammonium) [Compound 6, Rapa-42-ester of 2-(4-methylpyridinium-1-yl)acetic Acid]
6 | 130 to 132 | – | – | – | CO[C@H]1C[C@@H]2CC[C@@H](C)[C@@](O)(O2)C(=O)C(=O)N2CCCC[C@H]2C(=O)O[C@H]([C@H](C)C[C@@H]2CC[C@@H](O)[C@H](OC)C2)CC(=O)[C@H](C)/C=C(\C)[C@@H](OC(=O)C[n+]2cscc2C)[C@@H](OC)C(=O)[C@H](C)C[C@H](C)/C=C/C=C/C=C/1C (as salt: ammonium) [Compound 8, Rapa-31-ester of 2-(4-methylthiazolium-3-yl)acetic Acid]
7 | 138 to 140 | – | – | – | CO[C@H]1C[C@@H]2CC[C@@H](C)[C@@](O)(O2)C(=O)C(=O)N2CCCC[C@H]2C(=O)O[C@H]([C@H](C)C[C@@H]2CC[C@@H](O)[C@H](OC)C2)CC(=O)[C@H](C)/C=C(\C)[C@@H](OC(=O)C[n+]2cccc(C)c2)[C@@H](OC)C(=O)[C@H](C)C[C@H](C)/C=C/C=C/C=C/1C (as salt: ammonium) [Compound 9, Rapa-31-ester of 2-(3-methylpyridinium-1-yl)acetic Acid]
8 | 140 to 142 | – | – | – | CO[C@H]1C[C@@H]2CC[C@@H](C)[C@@](O)(O2)C(=O)C(=O)N2CCCC[C@H]2C(=O)O[C@H]([C@H](C)C[C@@H]2CC[C@@H](O)[C@H](OC)C2)CC(=O)[C@H](C)/C=C(\C)[C@@H](OC(=O)C[n+]2ccccc2)[C@@H](OC)C(=O)[C@H](C)C[C@H](C)/C=C/C=C/C=C/1C (as salt: ammonium) [Compound 10, Rapa-31-ester of 2-(pyridinium-1-yl)acetic Acid]
9 | 145 to 148 | – | – | – | CO[C@H]1C[C@@H]2CC[C@@H](C)[C@@](O)(O2)C(=O)C(=O)N2CCCC[C@H]2C(=O)O[C@H]([C@H](C)C[C@@H]2CC[C@@H](O)[C@H](OC)C2)CC(=O)[C@H](C)/C=C(\C)[C@@H](OC(=O)C[n+]2ccc(C)cc2)[C@@H](OC)C(=O)[C@H](C)C[C@H](C)/C=C/C=C/C=C/1C (as salt: ammonium) [Compound 11, Rapa-31-ester of 2-(4-methylpyridinium-1-yl)acetic Acid]
10 | – | 1615 | 4200 | – | CO[C@H]1C[C@@H]2CC[C@@H](C)[C@@](O)(O2)C(=O)C(=O)N2CCCC[C@H]2C(=O)O[C@H]([C@H](C)C[C@@H]2CC[C@@H](OC(=O)C[n+]3csc(C)c3C)[C@H](OC)C2)CC(=O)[C@H](C)/C=C(\C)[C@@H](O)[C@@H](OC)C(=O)[C@H](C)C[C@H](C)/C=C/C=C/C=C/1C [Compound 1, Rapa-42-ester of 2-(4,5-dimethylthiazolium-3-yl)acetic Acid]
11 | – | 11 | 28 | – | CO[C@H]1C[C@@H]2CC[C@@H](C)[C@@](O)(O2)C(=O)C(=O)N2CCCC[C@H]2C(=O)O[C@H]([C@H](C)C[C@@H]2CC[C@@H](OC(=O)C[n+]3cscc3C)[C@H](OC)C2)CC(=O)[C@H](C)/C=C(\C)[C@@H](O)[C@@H](OC)C(=O)[C@H](C)C[C@H](C)/C=C/C=C/C=C/1C [Compound 2, Rapa-42-ester of 2-(4-methylthiazolium-3-yl)acetic Acid]
12 | – | 10 | 25 | – | CO[C@H]1C[C@@H]2CC[C@@H](C)[C@@](O)(O2)C(=O)C(=O)N2CCCC[C@H]2C(=O)O[C@H]([C@H](C)C[C@@H]2CC[C@@H](OC(=O)C[n+]3ccccc3)[C@H](OC)C2)CC(=O)[C@H](C)/C=C(\C)[C@@H](O)[C@@H](OC)C(=O)[C@H](C)C[C@H](C)/C=C/C=C/C=C/1C [Compound 3, Rapa-42-ester of 2-(pyridinium-1-yl)acetic Acid]
13 | – | 2577 | 6700 | – | CO[C@H]1C[C@@H]2CC[C@@H](C)[C@@](O)(O2)C(=O)C(=O)N2CCCC[C@H]2C(=O)O[C@H]([C@H](C)C[C@@H]2CC[C@@H](OC(=O)C[n+]3cccc(C)c3)[C@H](OC)C2)CC(=O)[C@H](C)/C=C(\C)[C@@H](O)[C@@H](OC)C(=O)[C@H](C)C[C@H](C)/C=C/C=C/C=C/1C [Compound 4, Rapa-42-ester of 2-(3-methylpyridinium-1-yl)acetic Acid]
14 | – | 4 | 10 | – | CO[C@H]1C[C@@H]2CC[C@@H](C)[C@@](O)(O2)C(=O)C(=O)N2CCCC[C@H]2C(=O)O[C@H]([C@H](C)C[C@@H]2CC[C@@H](OC(=O)C[n+]3cccc(O)c3)[C@H](OC)C2)CC(=O)[C@H](C)/C=C(\C)[C@@H](O)[C@@H](OC)C(=O)[C@H](C)C[C@H](C)/C=C/C=C/C=C/1C [Compound 5, Rapa-42-ester of 2-(3-hydroxypyridinium-1-yl)acetic Acid]
15 | – | 2308 | 6000 | – | CO[C@H]1C[C@@H]2CC[C@@H](C)[C@@](O)(O2)C(=O)C(=O)N2CCCC[C@H]2C(=O)O[C@H]([C@H](C)C[C@@H]2CC[C@@H](OC(=O)C[n+]3ccc(C)cc3)[C@H](OC)C2)CC(=O)[C@H](C)/C=C(\C)[C@@H](O)[C@@H](OC)C(=O)[C@H](C)C[C@H](C)/C=C/C=C/C=C/1C [Compound 6, Rapa-42-ester of 2-(4-methylpyridinium-1-yl)acetic Acid]
16 | – | 8962 | 23300 | – | CO[C@H]1C[C@@H]2CC[C@@H](C)[C@@](O)(O2)C(=O)C(=O)N2CCCC[C@H]2C(=O)O[C@H]([C@H](C)C[C@@H]2CC[C@@H](O)[C@H](OC)C2)CC(=O)[C@H](C)/C=C(\C)[C@@H](OC(=O)C[n+]2csc(C)c2C)[C@@H](OC)C(=O)[C@H](C)C[C@H](C)/C=C/C=C/C=C/1C [Compound 7, Rapa-31-ester of 2-(4,5-dimethylthiazolium-3-yl)acetic Acid]
17 | – | 3846 | 10000 | – | CO[C@H]1C[C@@H]2CC[C@@H](C)[C@@](O)(O2)C(=O)C(=O)N2CCCC[C@H]2C(=O)O[C@H]([C@H](C)C[C@@H]2CC[C@@H](O)[C@H](OC)C2)CC(=O)[C@H](C)/C=C(\C)[C@@H](OC(=O)C[n+]2cscc2C)[C@@H](OC)C(=O)[C@H](C)C[C@H](C)/C=C/C=C/C=C/1C [Compound 8, Rapa-31-ester of 2-(4-methylthiazolium-3-yl)acetic Acid]
18 | – | 10269 | 26700 | – | CO[C@H]1C[C@@H]2CC[C@@H](C)[C@@](O)(O2)C(=O)C(=O)N2CCCC[C@H]2C(=O)O[C@H]([C@H](C)C[C@@H]2CC[C@@H](O)[C@H](OC)C2)CC(=O)[C@H](C)/C=C(\C)[C@@H](OC(=O)C[n+]2cccc(C)c2)[C@@H](OC)C(=O)[C@H](C)C[C@H](C)/C=C/C=C/C=C/1C [Compound 9, Rapa-31-ester of 2-(3-methylpyridinium-1-yl)acetic Acid]
19 | – | – | 62000 | 52600 | CO[C@H]1C[C@@H]2CC[C@@H](C)[C@@](O)(O2)C(=O)C(=O)N2CCCC[C@H]2C(=O)O[C@H]([C@H](C)C[C@@H]2CC[C@@H](O)[C@H](OC)C2)CC(=O)[C@H](C)/C=C(\C)[C@@H](OC(=O)C[n+]2ccccc2)[C@@H](OC)C(=O)[C@H](C)C[C@H](C)/C=C/C=C/C=C/1C [Compound 10, Rapa-31-ester of 2-(pyridinium-1-yl)acetic Acid]
20 | – | – | 62000 | 62500 | CO[C@H]1C[C@@H]2CC[C@@H](C)[C@@](O)(O2)C(=O)C(=O)N2CCCC[C@H]2C(=O)O[C@H]([C@H](C)C[C@@H]2CC[C@@H](O)[C@H](OC)C2)CC(=O)[C@H](C)/C=C(\C)[C@@H](OC(=O)C[n+]2ccc(C)cc2)[C@@H](OC)C(=O)[C@H](C)C[C@H](C)/C=C/C=C/C=C/1C [Compound 11, Rapa-31-ester of 2-(4-methylpyridinium-1-yl)acetic Acid]
